Reference: patent publication US9173878B2, “Brain function improving agent” (Tohoku University, priority 2012, dated 2015)
Where a name gives a salt, the structure may show the parent alone.

Assays:
[1] = system: CaMKII; test: CaMKII self-phosphorylation (activation) in cultured mouse cerebral cortex cell, immunoblot; type: cell-based; conditions: 100 pM, 30 minutes of incubation
Procedure: The above frozen mouse brain slice segment (hippocampus CA1 region) is used for homogenization on ice by adding 150 μL homogenizing buffer (50 mM Tris-HCl pH 7.5, 0.5% Triton X-100, 4 mM EGTA, 0.5 M NaCl, 10 mM EDTA, 1 mM Na3VO4, 30 mM sodium pyrophosphate, 50 mM NaF, 1 mM DTT, 100 nM calyculin A, 50 μg/mL leupeptin, 25 μg/mL pepstatin A, 50 μg/mL trypsin inhibitor) per sample. Then, centrifugation was performed using a refrigerated centrifuge (14,000×g, 10 minutes, 4° C.), after which 100 μL of supernatant was collected and 20 μL of 6× Laemmli buffer was added to the supernatant to be boiled at 100° C. for 3 minutes, to form an immunoblotting sample. The protein concentration was measured by the Bradford method using a part of the supernatant. Reagants containing the same amount of protein were added to 10% SDS-polyacrylamido electrophoresis gel (SDS-PAGE gel), and SDS-PAGE was performed at 80 mA per 1 sheet of gel for 180 minutes. After separation by electrophoresis, transcription to a PVDF membrane was performed at 70 V for 120 minutes. […] After washing with a TTBS solution, ECL detection system (GE healthcare) was used to induce luminescence of HRP that labels the second antibody, and the X-ray film (Fuji Medical X-ray Film, Fuji Film) was sensitized to detect the band. An NIH image analysis software was used for a quantification analysis of the immunoreaction product.
The dispersion cultivation of a mouse cerebral cortex cell was performed by a previously reported method (Fukunaga et al., J. Biol. Chem. 267, 22527-22533, 1992). […] The frozen cerebral cortex cells were subjected to quantification analysis of the activation state (self-phosphorylation reaction) of CaMKII by the immunoblotting method after homogenization, similarly to the method in Test Example 2.

[2] = system: mouse hippocampus CA1 region; test: Long-term potentiation of synaptic transmission (LTP), fEPSP in hippocampus slice; type: cell-based; conditions: 100 pM in artificial cerebrospinal fluid
Procedure: (§1) The brain of a male mouse C57BL/6 (10-12 weeks old) was sagitally sectioned, then a coronal section brain slice (400 μm) including a hippocampus CA1 region was prepared. The hippocampus slice was recovered in an artificial cerebrospinal fluid (126 mM NaCl, 5 mM KCl, 26 mM NaHCO3, 1.3 mM MgSO4-7H2O, 1.26 mM KH2PO4, 2.4 mM CaCl2-2H2O, 10 mM glucose) saturated by a 95% O2/5% CO2 gas at 34° C. for 2 hours. The hippocampus slice was transferred to a measurement chamber, and ST101 (100 pM), SAK1 (100 pM), SAK3 (100 pM) were added to the artificial cerebrospinal fluid, and perfused. Then, the Schaffer branch to be input to the hippocampus CA1 region and the commissural fibers were stimulated by stimulus electrodes, and the postsynaptic potential (fEPSP; field excitatory postsynaptic potential) in the CA1 region induced thereby was measured. After measurement, just the hippocampus CA1 region was sliced from the slice segment, and frozen for preservation at −80° C. for measurement with immunoblotting.

[3] = system: CaMKII; test: CaMKII self-phosphorylation (activation) in hippocampus CA1 region, immunoblot; type: cell-based, mouse; conditions: hippocampus CA1 region 60 minutes after LTP, 100 pM
Procedure: as §1, with “After measurement, just the hippocampus CA1 region was sliced from the slice segment, and frozen for preservation at −80° C. for measurement with immunoblotting.” left out
The above frozen mouse brain slice segment (hippocampus CA1 region) is used for homogenization on ice by adding 150 μL homogenizing buffer (50 mM Tris-HCl pH 7.5, 0.5% Triton X-100, 4 mM EGTA, 0.5 M NaCl, 10 mM EDTA, 1 mM Na3VO4, 30 mM sodium pyrophosphate, 50 mM NaF, 1 mM DTT, 100 nM calyculin A, 50 μg/mL leupeptin, 25 μg/mL pepstatin A, 50 μg/mL trypsin inhibitor) per sample. […] The protein concentration was measured by the Bradford method using a part of the supernatant. […]

[4] = system: non-transfected mouse neuroblastoma cell line Neuro2A; test: Calcium imaging (Fura-2) in T-type calcium channel non-expressing Neuro2A cells; type: cell-based; conditions: Cav3.1 non-expressing cell, nicotin 1 μM
Procedure: The cells of mouse neuroblastoma cell line Neuro2A were purchased from the Human Science Research Resources Bank (#IFO50081, Osaka, Japan). […] Then, the Neuro2A cells were seeded to a glass bottom dish at a concentration of 1 to 2×10^6 cell/φ35-mm dish, and cultivated for 24 hours in a standard culture medium, and the cells were transfected using Lipofectamine 2000 (Invitrogen, Carsbad, Calif., USA) and using a plasmid vector containing a T-type calcium channel (Cav 3.1) genes (serum-free culture of Lipofectamine 2000: DNA=1 μl: 1 μg, 1.5 ml). The T-type calcium channel (Cav 3.1) gene, the plasmid vector pCMV-SPORT6, and the Lipofectamine 2000 were respectively purchased from OriGene Technologies, Inc., Thermo Fisher Scientific Ltd., and Invitrogen, and the transfection was performed according to the protocol attached to Lipofectamine 2000 other than the rate adjustment of the Lipofectamine 2000 and plasmid vector. The serum-free culture was replaced with a standard culture 6 hours after transfect, and calcium imaging (calcium concentration measurement) was performed after Cav 3.1 expression was confirmed after 48 hours of culture. T-type calcium channel expressing Neuor2A cells were dispersed in a glass bottom dish, and 2.5 μM of Fura-2-AM (Sigma, St Louis, Mo., USA) was added to the dish in perfusion (Krebs-Hepes buffer; KRH), then the dish was incubated at 37° C. for 30 minutes. A Fura-2-AM-free KRH was replaced with perfusion, and the Neuro2A cells were stimulized with SAK3 (100 pM) as the intracellular calcium was measured with a fluorescent microscope, then the cells were further stimulized with nicotin (1 μM), ATP (0.1 μM), DHPG (20 μM), as necessary.

[5] = system: Alzheimer's disease; conditions: treating Alzheimer's disease; cited from earlier work

CCOC(=O)C1=C(N2CCCCC2)C2(CC1=O)C(=O)N=C1C=CC=CN12 (stereo not shown) [SAK8]
phosphorylated CaMKII / activation of CaMKII [1]: increased phosphorylated CaMKII

CCOC(=O)C1=C(SC)C2(CC1=O)C(=O)N=C1C=CC=CN12 (stereo not shown) [SAK1]
LTP potentiation effect [2]: a strong potentiation effect was observed | phosphorylated CaMKII / CaMKII activation [3]: an increase of phosphorylated CaMKII and a potentiation of CaMKII activation were confirmed

CN1CCCC1c1cccnc1 (stereo not shown) [nicotin, reference compound]
change in calcium concentration after adding nicotin [4]: an increase in the calcium concentration after adding nicotin was confirmed

COc1cc2c(cc1OC)C(=O)C(CC1CCN(Cc3ccccc3)CC1)C2 (stereo not shown) [Donepezil hydrochloride]
efficacy ratio of the clinical result [5]: about 50%

CCOC(=O)C1=C(N2CCCCC2)C2(CC1=O)C(=O)N=C1C(C)=CC(C)=CN12 (stereo not shown) [SAK9]
phosphorylated CaMKII / activation of CaMKII [1]: increased phosphorylated CaMKII

O=C1N=C2C=CC=CN2C12Cc1ccccc1C2 [ST101, reference compound]
LTP potentiation effect [2]: does not show a strong LTP potentiation effect
